Values quoted from earlier work, collected in patent US3959464A, “Microencapsulated methyl and ethyl parathion insecticide in aqueous carrier” (Pennwalt Corporation, priority 1971, dated 1976).

Experiments:
[1] = system: insects; settings: ordinary methods of application
[2] = system: food crops; settings: unmodified, unencapsulated
[3] = for effect of moisture (hydrolysis): contacted by moisture; for degradation in the field: hydrolysis and oxidation reactions

Row | Structure (SMILES) | period of pesticidal effectiveness in the field [1] | phytotoxicity [2] | effect of moisture (hydrolysis) [3] | degradation in the field [3]
1 | CCOP(=S)(OCC)Oc1ccc([N+](=O)[O-])cc1 [ethyl parathion, O,O-diethyl-O-p-nitrophenol phosphorothioate] | only several days | chemical phytotoxicity to various food crops | rendered ineffectual by hydrolysis when contacted by moisture | rapid degradation in the field
2 | COP(=S)(OC)Oc1ccc([N+](=O)[O-])cc1 [methyl parathion, O,O-dimethyl-O-p-nitrophenol phosphorothioate] | only several days | chemical phytotoxicity to various food crops | rendered ineffectual by hydrolysis when contacted by moisture | rapid degradation in the field
